Measurements: paper PMC11253633, “Robust leishmanicidal upshot of some new diphenyl triazine-based molecules” (RSC Advances, 2024)
Entries after “also recorded” stand apart in the source; their conditions may differ.

Assays:
[1] = system: promastigote form of L. donovani; conditions: cited from earlier work
[2] = system: L. donovani promastigotes; test: Dose-dependent anti-promastigote activity and determination of IC50 (MTT); format: cell-based; conditions: Leishmania donovani, 72 h, 3 days at 26 °C
Experimental: MTF was used as a standard antileishmanial drug control. The cell viability was evaluated (by MTT Assay) and the mean percentage viability was calculated as follows: Mean cell number of treated parasites/mean cell number of untreated parasites × 100. The 50 and 90% inhibitory concentration (IC50) i.e., the concentration of drugs that decreased the cell growth by 50 and 90% respectively, was determined by graphical extrapolation after plotting the graph of percentage viability vs. concentration of the drug.[31]
Parasite viability was not affected by DMSO (0.2%, data not shown) used as solvent control.[33]

L. donovani amastigotes = test: Anti-amastigote assay in infected THP-1 macrophages (Giemsa); format: cell-based, Leishmania donovani
Experimental: To evaluate the anti-leishmanial effect of the compound T4 and T7 on intracellular L. donovani parasites, macrophage was infected with stationary -phase L. donovani for 6 h. The cells were then washed with saline to remove any non-internalised parasites. To assess the effect of compounds T4 and T7 on intracellular parasites at early stages of infection, macrophages were subsequently treated with T4 and T7 at concentrations of 100, 50, 25, 12.5, or 6.25 μM (refer to Table 3 and Fig. 7) for 6, 24, or 48 hours.
THP-1 cells (5 × 10^5 cells per mL) were cultivated in RPMI-1640 media (Roswell Park Memorial Institute 1640) (Sigma-Aldrich, USA), supplemented with 10% fetal calf serum and maintained at 37 °C with 5% CO2 using phorbol ester as the inducer. These cells were added on circular coverslips (1 × 10^6 cells per mL). Promastigotes of L. donovani were introduced at 1 : 20 ratio. Treatment of the samples was carried out at doses of 100, 50, 25, 12.5, 6.25 and 3.125 μM/72 h. After being taken off, the coverslips were stained with Giemsa. The rate of macrophage infection was then ascertained.

[3] = system: Human macrophage THP-1 cell line; test: Cytotoxicity assay on THP-1 cell line (MTT); format: cell-based; conditions: 3.125–100 μM
Experimental: The cell lines were incubated for 48 h at 37 °C in a CO2 incubator with increasing concentrations of test compounds and viability was ascertained. Each point or bar corresponds to the mean ± SEM of triplicate samples and is representative of one of three independent experiments.
THP-1 human monocytic cells were grown at 37 °C in medium RPMI-1640 (pH 7.4, Sigma-Aldrich, St. Louis, MO, USA) supplemented with 10% heat-inactivated FBS for 48 to 72 h in a humidified atmosphere of 5% CO2 and sub-cultured in fresh RPMI-1640 medium at an average density 2 × 10^5 cells per mL (Sharma et al. 2023).[30]
Human macrophage THP-1 cell line of 0.5 × 10^6 cells per mL seeded in RPMI-1640 medium (Sigma-Aldrich, USA) supplemented with 10% FBS (GIBCO) in presence of 5% CO2 at 37 °C in triplicate in 96 well culture plate. The cells were treated with two-fold serially diluted concentrations (100–3.125 μM) of the candidate molecules for 72 h. The IC50 was calculated using MTT assay (Sharma et al. 2023).[30]

[4] = system: L. donovani promastigotes; test: Anti-leishmanial screening against L. donovani promastigotes at a single concentration (MTT); format: cell-based, Leishmania donovani; conditions: for % Inhibition of L. donovani promastigotes / Activity against the promastigote parasite (in words): 100 μM; for % Inhibition of L. donovani promastigotes / inhibition at 100 µM: 72 h at 26 °C, MTT; for inhibition at 100 µM: Leishmania donovani, 72 h
Experimental: Each candidate was evaluated for its in vitro activity against reference strain (MHOM/IN/83/AG83) of extracellular promastigotes and intracellular amastigotes of L. donovani.
Promastigotes were routinely cultured at 26 °C in medium M199 supplemented with 10% heat inactivated fetal bovine serum (FBS, Gibco Laboratories, Mumbai, India), penicillin 100 (IU mL^−1), streptomycin (100 μg mL^−1). Log phase promastigotes were sub-cultured every 72–96 h, the inoculum being 2 × 10^6 cells per mL.[29]
The triazin hybrids series was evaluated for their antileishmanial ability against L. donovani promastigotes in vitro. Promastigotes of L. donovani (1× 10^6 cells per mL) in M199 medium were incubated at 26 °C for 72 h with each compound at a concentration of 100 μM. Miltefosine (MTF) was used as a reference drug, 0.2% DMSO as solvent control. Parasites with media alone were taken as control. Parasite viability was achieved by MTT assay after 72 h (Sharma et al. 2023).[30]

1,2,4-triazino[5,6-b]indol-3-ylthio-1,3,5-triazine [1 (Fig. 2)]
fold more selectivity in comparison to pentamidine [1]: 20 fold
fold more selectivity in comparison to sodium stibogluconate [1]: 10 fold
inhibition against promastigote form of L. donovani [1]: more than 90%
selectivity (S.I.) [1]: 56.61

C[C@@H]1[C@H](O)[C@@H](C)/C=C/C=C/C=C/C=C/C=C/C=C/C=C/[C@H](O[C@@H]2O[C@H](C)[C@@H](O)[C@H](N)[C@@H]2O)C[C@@H]2O[C@](O)(C[C@@H](O)C[C@@H](O)[C@H](O)CC[C@@H](O)C[C@@H](O)CC(=O)O[C@H]1C)C[C@H](O)[C@H]2C(=O)O [Ampho B, Amphotericin B, reference compound]
IC50 [2]: 1040 nM
Percentage reduction of parasites (amastigote) (L. donovani amastigotes; 6.25 μM): 74%
Percentage reduction of parasites (amastigote) (L. donovani amastigotes; 12.5 μM): 76%
Percentage reduction of parasites (amastigote) (L. donovani amastigotes; 25 μM): 79.44%
Percentage reduction of parasites (amastigote) (L. donovani amastigotes; 50 μM): 82.5%
Percentage reduction of parasites (amastigote) (L. donovani amastigotes; 100 μM): 84.2%

CCCCCCCCCCCCCCCCOP(=O)([O-])OCC[N+](C)(C)C [MTF, miltefosine, reference compound]
IC50 [2]: 1480 nM
Percentage reduction of parasites (amastigote) (L. donovani amastigotes; 6.25 μM): 68%
Percentage reduction of parasites (amastigote) (L. donovani amastigotes; 12.5 μM): 72%
Percentage reduction of parasites (amastigote) (L. donovani amastigotes; 25 μM): 73%
Percentage reduction of parasites (amastigote) (L. donovani amastigotes; 50 μM): 74%
Percentage reduction of parasites (amastigote) (L. donovani amastigotes; 100 μM): 76%
Cytotoxicity on THP-1 human macrophages (in words) [3]: some cytotoxicity
Cytotoxicity on THP-1 human macrophages (in words) ([3]; listed as Miltefosine): nontoxic

Clc1ccc2c(Sc3nnc(-c4ccccc4)c(-c4ccccc4)n3)ccnc2c1 [T1, 7-Chloro-4-((5,6-diphenyl-1,2,4-triazin-3-yl)thio)quinoline]
% Inhibition of L. donovani promastigotes [4]: 66.78%
melting point: 250 to 252 °C

CCOC(=O)c1cnc2ccc(OC)cc2c1Sc1nnc(-c2ccccc2)c(-c2ccccc2)n1 [T2, Ethyl 4-((5,6-diphenyl-1,2,4-triazin-3-yl)thio)-6-methoxyquinoline-3-carboxylate]
% Inhibition of L. donovani promastigotes [4]: 71.02%
inhibition at 100 µM [4]: < 90%
melting point: 200 to 202 °C

CCOC(=O)c1cnc2ccc(C)cc2c1Sc1nnc(-c2ccccc2)c(-c2ccccc2)n1 [T3, Ethyl 4-((5,6-diphenyl-1,2,4-triazin-3-yl)thio)-6-methylquinoline-3-carboxylate]
% Inhibition of L. donovani promastigotes [4]: 83.43%
inhibition at 100 µM [4]: < 90%
melting point: 210 to 212 °C

O=C(CSc1nnc(-c2ccccc2)c(-c2ccccc2)n1)Nc1cc(=O)oc2ccccc12 [T5, 2-((5,6-Diphenyl-1,2,4-triazin-3-yl)thio)-N-(2-oxo-2H-chromen-4-yl)acetamide]
% Inhibition of L. donovani promastigotes [4]: 67.93%
melting point: 200 to 202 °C

c1ccc(-c2nnc(Sc3cc(N4CCOCC4)ncn3)nc2-c2ccccc2)cc1 [T6, 4-(6-((5,6-Diphenyl-1,2,4-triazin-3-yl)thio)pyrimidin-4-yl)morpholine]
Activity against the promastigote parasite (in words) [4]: negligible activity
inhibition at 100 µM [4]: 43.9%
melting point: 198 to 200 °C

c1ccc(-c2nnc(Sc3cc(N4CCCCC4)ncn3)nc2-c2ccccc2)cc1 [T8, 5,6-Diphenyl-3-((6-(piperidin-1-yl)pyrimidin-4-yl)thio)-1,2,4-triazine]
Activity against the promastigote parasite (in words) [4]: negligible activity
inhibition at 100 µM [4]: 73.7%

N#Cc1cccnc1N1CCN(c2cc(Sc3nnc(-c4ccccc4)c(-c4ccccc4)n3)ncn2)CC1 [T9, 2-(4-(6-((5,6-Diphenyl-1,2,4-triazin-3-yl)thio)pyrimidin-4-yl)piperazin-1-yl)nicotinonitrile]
Activity against the promastigote parasite (in words) [4]: negligible activity
inhibition at 100 µM [4]: 29.8%
melting point: 250 to 252 °C

Clc1ccc2c(N3CCN(c4cc(Sc5nnc(-c6ccccc6)c(-c6ccccc6)n5)ncn4)CC3)ccnc2c1 [T10, 7-Chloro-4-(4-(6-((5,6-diphenyl-1,2,4-triazin-3-yl)thio)pyrimidin-4-yl)piperazin-1-yl) quinoline]
Activity against the promastigote parasite (in words) [4]: negligible activity
inhibition at 100 µM [4]: 22.4%
melting point: 260 to 262 °C

Cc1cc(N2CCN(c3cc(Sc4nnc(-c5ccccc5)c(-c5ccccc5)n4)ncn3)CC2)n2ncnc2n1 [T11, 7-(4-(6-((5,6-Diphenyl-1,2,4-triazin-3-yl)thio)pyrimidin-4-yl)piperazin-1-yl)-5-methyl-[1,2,4]triazolo[1,5-a]pyrimidine]
Activity against the promastigote parasite (in words) [4]: negligible activity
inhibition at 100 µM [4]: 32.1%
melting point: 280 to 285 °C

COc1ccccc1N1CCN(c2cc(Sc3nnc(-c4ccccc4)c(-c4ccccc4)n3)ncn2)CC1 [T12, 103-((6-(4-(2-methoxyphenyl)piperazin-1-yl)pyrimidin-4-yl)thio)-5,6-diphenyl-1,2,4-triazine]
Activity against the promastigote parasite (in words) [4]: negligible activity; also recorded: minimal activity
% Inhibition of L. donovani promastigotes [4]: 21.86%

CCN1CCN(c2cc(Sc3nnc(-c4ccccc4)c(-c4ccccc4)n3)ncn2)CC1 [T13, 113-((6-(4-Ethylpiperazin-1-yl)pyrimidin-4-yl)thio)-5,6-diphenyl-1,2,4-triazine]
Activity against the promastigote parasite (in words) [4]: negligible activity; also recorded: minimal activity
% Inhibition of L. donovani promastigotes [4]: 18.54%

O=[N+]([O-])c1ccc(N2CCN(c3cc(Sc4nnc(-c5ccccc5)c(-c5ccccc5)n4)ncn3)CC2)cc1 [T14, 123-((6-(4-(4-Nitrophenyl)piperazin-1-yl)pyrimidin-4-yl)thio)-5,6-diphenyl-1,2,4-triazine]
Activity against the promastigote parasite (in words) [4]: negligible activity; also recorded: minimal activity
% Inhibition of L. donovani promastigotes [4]: 22.76%

Fc1ccc(N2CCN(c3cc(Sc4nnc(-c5ccccc5)c(-c5ccccc5)n4)ncn3)CC2)cc1 [T15, 3-((6-(4-(4-Fluorophenyl)piperazin-1-yl)pyrimidin-4-yl)thio)-5,6-diphenyl-1,2,4-triazine]
Activity against the promastigote parasite (in words) [4]: negligible activity; also recorded: minimal activity
inhibition at 100 µM [4]: 28.8%
